# Values of other authors as cited in paper PMC4014123 (Acta Crystallographica Section D: Biological Crystallography, 2014).
# Test system: I223R/H275Y dual mutation of neuraminidase from influenza A H1N1
# Conditions: I223R/H275Y dual mutant vs wild type; ref van der Vries et al., 2012; cited from earlier work
smiles,measurement,value
CCOC(=O)C1=C[C@@H](OC(CC)CC)[C@H](NC(C)=O)[C@@H](N)C1 [oseltamivir],resistance towards oseltamivir relative to wild type,approximately 7500 times
